Source: PMC5427923, “A novel CCR2 antagonist inhibits atherogenesis in apoE deficient mice by achieving high receptor occupancy” (Scientific Reports, 2017)

Tests used:
apoE−/− mice = assay: Atherosclerotic lesion development in Western-type diet fed apoE−/− mice (carotid collar, aortic root); format: in vivo, mouse
Source text: Male apoE^−/− mice (10–12 weeks old), obtained from the local animal breeding facility (Gorlaeus Laboratories, Leiden, The Netherlands), were fed a Western type diet, containing 0.25% cholesterol and 15% cocoabutter (SDS, Sussex, UK).
To determine the effect of the CCR2 antagonist on atherosclerotic lesion development, mice were fed a Western type diet, containing 0.25% cholesterol and 15% cocoabutter (SDS, Sussex, UK) throughout the experiment starting two week before surgery. Carotid artery plaque formation was induced by perivascular collar placement as described previously[46] and from the time of surgery, the mice received daily intraperitoneal injections containing 15a (5 mg/kg/day) or vehicle control (n = 9–10 per group). During the experiment, total body weight and weight gain were measured. Serum total cholesterol levels were determined using an enzymatic colorimetric assay according to manufacturer’s protocol (Roche Diagnostics). Precipath (standardized serum; Boehringer Mannheim, Germany) was used as an internal standard. Plasma cytokine levels were measured by ELISA according to manufacturer’s protocol (BD Biosciences). Blood was collected weekly via tail cut. Total cell count and cellular differentiation patterns in blood were analyzed using an automated XT-2000iV veterinary hematology analyzer (Sysmex Europe GMBH, Norderstedt, Germany). After erythrocyte lysis, blood leukocyte suspensions were stained for surface markers, after which their expression was determined by FACS analysis (FACS Canto, BD Biosciences). After 4 weeks of lesion development, the animals were anaesthetized and blood was collected. After in situ perfusion through the left cardiac chamber, the carotid arteries and hearts were harvested.
Carotid artery cryosections of 5 µm thick were prepared, which were stained with hematoxylin-eosin to determine plaque size and necrotic core size. Morphometric analysis was performed on sections throughout the atherosclerotic lesion (100 µm apart) and at the site of maximal stenosis using Leica Qwin image analysis software. The relative necrotic area was defined as the a-cellular, debris-rich plaque area as percentage of total plaque area, and also quantified using Leica QWin software.
The hearts were dissected just below the atria and sectioned perpendicular to the axis of the aorta, starting within the heart and working in the direction of the aortic arch. Once the aortic root was identified by the appearance of aortic valve leaflets, 10 µm sections were collected. Mean lesion area (in µm^2) of the aortic root was calculated from six Oil-Red-O stained sections in distal direction starting at the point where all three aortic valve leaflets first appeared.
Macrophage content of the lesions in carotid arteries and aortic roots was stained using a rat monoclonal MOMA2 antibody (1:1000, Serotec, Kidlington, Oxford, UK). Macrophage positive areas were analyzed using computer-assisted colour-gated analysis, and related to the total intimal surface area (Leica QWin). Liver cryosections of 10 µm thick were prepared and subsequently stained with hematoxylin-eosin to analyze liver morphology, which was assessed using a Leica DMRE microscope (Leica Ltd., Cambridge, England).

CCR2 = assay: Pharmacokinetics-based prediction of target occupancy; design: species or system mouse; conditions: calculated/simulated from plasma concentrations, single dose 5 mg/kg i.p., for 24 hours
Protocol: The target occupancy was calculated for each measurement of the drug concentration, according to equation (1), in which [C] is the concentration of the drug in the blood and KD is the drug target affinity.1 TargetOccupancy(%)=[C]/[C]+KD×100%
In addition, a simple mathematical model was used to simulate target occupancy for the observed in vivo pharmacokinetics and in vitro binding kinetics according to the equations in the next section (equations (3–5)).
To determine the maximal value of k off that would prolong the receptor occupancy even further, we used equation (2)[28], in which BF represents the percentage of target occupancy divided by 100 and t 1/2el represents the plasma elimination half-life (0.693/k el). In this case we set BF to 0.90, as 90% represents the minimum value of target occupancy to achieve efficacy. To obtain the elimination rate constant of compound 15a, a linear regression analysis of the natural logarithm of the concentrations versus time was performed, and the slope coefficient was used as the elimination rate constant k el.2 koff<0.693⋅(1−BF)/t1/2el
The concentrations of unbound drug in the blood [C] and target-bound drug [LR] were modeled according to equations (3–5). […]
The concentration of the target-bound drug is calculated according to equation (5):5 d[LR]/dt=kon⋅[C]⋅[Rfree]−koff⋅[LR] […]

## CC(C)[C@]1(C(=O)N2CCc3ccc(C(F)(F)F)cc3C2)CC[C@@H](N[C@@H]2CCc3cc(Br)ccc32)C1 [15a, ((1S,3R)-3-(((R)-5-bromo-2,3-dihydro-1H-inden-1-yl)amino)-1-isopropylcyclopentyl)(7-(trifluoromethyl)-3,4-dihydroisoquinolin-2(1H)-yl)methanone]
apoE−/− mice; 5 mg/kg/day i.p., 4 weeks, controls 64.4 ± 11.8
  atherosclerotic plaque size in the carotid artery at the site of maximal stenosis: 17.6 ± 4.1 *10^3 µm^2
apoE−/− mice; carotid artery plaques, controls 35.3 ± 8.2%
  relative necrotic area: 7.6 ± 4.5%
apoE−/− mice; controls 1.75 ± 0.33
  plaque volume throughout the carotid arteries: 0.46 ± 0.13 *10^7 µm^3
apoE−/− mice; controls 11.8 ± 1.2
  aortic root plaque volume: 7.4 ± 0.7 *10^7 µm^3
apoE−/− mice; controls 22.3 ± 4.1
  macrophage positive area of the carotid artery plaques (MOMA2): 6.2 ± 2.5 *10^3 µm^2
apoE−/− mice; controls 46 ± 4%
  relative macrophage content (corrected for lesion size), carotid artery: 25 ± 8%
apoE−/− mice; controls 92.0 ± 15.6
  macrophage positive area, aortic root: 37.2 ± 8.7 *10^3 µm^2
apoE−/− mice; controls 215.9 ± 24.6
  aortic root average plaque size: 157.0 ± 15.7 *10^3 µm^2
apoE−/− mice; mouse, in vivo
  reduction in carotid artery lesion size: more than 70%
apoE−/− mice; site of maximal stenosis
  change in carotid artery plaque size versus control: −73%
CCR2
  target occupancy (CCR2): > 90%
